Measured values published in US8663607B2, “Ferrate(VI)-containing compositions and methods of using ferrate(VI)” (Battelle Memorial Institute, priority 2007, dated 2014).

Legend:
[1] = Stain removal from HAP disk, grape juice stain; conditions: disk A-4: grape juice stained disk treated the same way as P and Q (pH 8 SDS/HEPA buffer)
[2] = at 71° C.; pure (80-100%) or moderate purity (50-80%)
Description: The more demanding isothermal test conditions were chosen for the preliminary viability assessment testing. In this series of tests, a Blue M Electric Oven, Model OV-490A-3 (S/N OV-11311, BMI No. N-00154, 120V Single Phase, 38-260° C.), was used. The oven was set to maintain an air temperature of approximately 71.5° C. A mercury thermometer immersed in silicone oil was added to the oven for manual tracking of the temperature, and a HOBO model H08-002-02 external temperature logger (Onset Computer Corp., S/N 5948-9820) was used for automated temperature data acquisition. Four ˜1.0 g samples of K2FeO4 TG were transferred to clean 12 mL glass vials with Teflon-lined caps; these samples with purity from ˜75-93% were chosen specifically to represent a variety of initial purity values. Before closure, the headspace of each vial briefly was purged (˜20 sec at ˜250 cm^3 (STP)) with ultra-high purity (UHP) argon gas to minimize trapped moisture.
The samples were removed from the oven at 1, 2, 5, 7, 12, 27, 48, and 98 days. The purity of each sample was determined by the technique described in Section 3.2.1. Each vial was assayed three times at each sampling point in order to calculate standard deviation and provide an estimate of precision. When returning the vials to the isothermal oven, the headspace of each vial was purged briefly with UHP argon, as before.

[3] = Stain removal from HAP disk, coffee stain; conditions: disk A-6: coffee stained disk treated the same way as P and Q (pH 8 SDS/HEPA buffer)
Description: Oxidation resistant chelating buffer: 0.25M 1-Hydroxyethylidenediphosphonic acid (etridonic acid) (Dequest® 2010, Thermphos) (HEPA) was pH adjusted by microtitration with 10N NaOH. 1.28 g of 1-Hydroxyethylidenediphosphonic acid was to a 25-mL volumetric flask and brought to volume with HPDI water. The solution was transferred to a 50-mL beaker with a stir bar and pH adjusted using 10.04N NaOH, monitored with a calibrated pH meter. Aliquat 336® (Cognis) (also suitable is Aliquat 134®) (N-methyl-tri-(n-octyl)ammonium chloride), (N-methyl TOA) or “HEPA” chelating pH Buffer: 2.5-μL of N-methyl TOA was added to 5 mL of pH 7 HEPA buffer and sonicated for 1 minute. pH 7 Sodium Dodecyl Sulfate (SDS)/HEPA Buffer: 10 mg of SDS was added to 5 mL of pH 7 HEPA buffer and sonicated for 1 minute. pH 8 SDS/HEPA Buffer: 10 mg of SDS was added to 5 mL of pH 8 HEPA buffer and sonicated for 1 minute.
• A. A tea stained disk was placed into the bowl of the bowl of a watch glass and 100 μL of pH 7 HEPA buffer was pipetted onto the disk surface. 3.7 mg of potassium ferrate(VI) was added to the disk surface and mixed gently. […] The disk was rinsed at 10 minutes with HPDI water. […] 1 mL of pH 7 HEPA buffer was added followed by 9 mL of HPDI water. 9.7 mg of potassium ferrate(VI) was added. The tube was gently hand shaken for 10 minutes. The disk was removed and rinsed with HPDI water. […] 10 mg of potassium ferrate(VI) was added to 1 mL of pH 7 HEPA buffer in a 50 mL centrifuge tube. 9 mL HPDI water was added, and the solution was shaken for a few seconds followed by the addition of a tea stained HAP disk. The disk was removed at 10 minutes and rinsed with HPDI water. […] 1.3 mg of potassium ferrate(VI) added and mixed into the solution. […] 1.4 mg of potassium ferrate(VI) was added to the disk surface and mixed gently. […] The reaction was allowed to continue for 5 minutes. […] The disk was rinsed several times with HPDI water. 100 μL of pH 7 HEPA buffer was pipetted onto the disk surface and allowed to react for 5 minutes. […] 1 mg of potassium ferrate(VI) was added and mixed into the liquid.

potassium ferrate(VI)
L* (lightness/darkness) [1]: 103.5 | a* (blue/red) [1]: −1.9 | appearance of disk after treatment [1]: All stains were removed | b* (yellow/green) [1]: −3.1 | reflectance of visible light at 450 nm [1]: 111.244 | reflectance of visible light at 750 nm [1]: 103.795 | ΔE (grape juice stain) [1]: 6.10 | stable to storage [2]: at least 98 days | L* (lightness/darkness) [3]: 101.9 | a* (blue/red) [3]: −2.1 | appearance of disk after treatment [3]: All stains were removed | b* (yellow/green) [3]: −2.8 | reflectance of visible light at 450 nm [3]: 106.774 | reflectance of visible light at 750 nm [3]: 99.233 | ΔE (coffee stain) [3]: 13.57
